Measurements from US7271171B2, “Adenosine A3 receptor modulators” (King Pharmaceuticals Research and Development, Inc., priority 1998, dated 2007).
Counter-ions that a name gives are not always drawn.

Columns and labels:
[1] = molecular target: T1, human recombinant A2A adenosine receptors (Homo sapiens, UniProt P29274); experiment: Human cloned A2A receptor binding, [3H]-SCH58261, CHO cells; conditions: read-out: hA2A (Ki)
T1 construct: expressed in transfected cells; host or cells: CHO
Procedure: (§1) The expression of the human A1, A2A, A2B and A3 receptors in CHO cells has been previously described (Klotz et al., 1998). The cells are grown adherently and maintained in Dulbecco's modified Eagle's medium with nutrient mixture F12 without nucleosides at 37 ° C. in 5% CO2/95% air. Cells are split two or three times weekly and then the culture medium is removed for membrane preparations. The cells are washed with phosphate-buffered saline and scraped off flasks in ice cold hypotonic buffer (5 mM Tris HCl, 2 mM EDTA, pH 7.4). The cell suspension is homogenized with Polytron and the homogenate is centrifuged for 30 min. at 48,000 g. The membrane pellet is re-suspended in 50 mM Tris HCl buffer at pH 7.4 for A1 adenosine receptors, in 50 mM Tris HCl, 10 mM MgCl2 at pH 7.4 for A2A adenosine receptors, in 50 mM Tris HCl, 10 mM MgCl2, 1 mM EDTA at pH 7.4 for A3 adenosine receptors and are utilized for binding and adenylate cyclase assays.
(§2) Displacement experiments are performed for 120 min. at 25° C. in 0.20 mL of buffer containing 1 nM [^3H]-DPCPX, 20 μL of diluted membranes (50 μg of protein/assay) and at least 6-8 different concentrations of examined compounds. Non-specific binding is determined in the presence of 10 μM of CHA and this is always 10% of the total binding. Binding of [^3H]-SCH58261 to CHO cells transfected with the human recombinant A2A adenosine receptors (50 μg of protein/assay) was performed according to Varani et al. (Varani, K; Cacciari, B.; Baraldi, P. G.; Dionisotti, S.; Ongini, E.; Borea, P. A., “Binding affinity of adenosine receptor agonists and antagonists at human cloned […] adenosine receptors,” Life Sci., 63, 81-87, 1998). In competition studies, at least 6-8 different concentrations of compounds are used and non-specific binding is determined in the presence of 50 μM NECA for an incubation time of 60 min. at 25° C.

[2] = molecular target: T2, human recombinant A3 adenosine receptor (Homo sapiens, UniProt P0DMS8); experiment: Human cloned A3 receptor binding, [3H] MRE3008-F20, CHO cells; set-up: expressed in transfected cells; host or cells: CHO; conditions: for Ki: CHO cells, [3H] MRE3008-F20, read-out: hA3 (Ki); for hA1/hA3 / hA2A/hA3 / hA2B/hA3: selectivity ratio of Ki values
T2 sequence (P0DMS8 1-318): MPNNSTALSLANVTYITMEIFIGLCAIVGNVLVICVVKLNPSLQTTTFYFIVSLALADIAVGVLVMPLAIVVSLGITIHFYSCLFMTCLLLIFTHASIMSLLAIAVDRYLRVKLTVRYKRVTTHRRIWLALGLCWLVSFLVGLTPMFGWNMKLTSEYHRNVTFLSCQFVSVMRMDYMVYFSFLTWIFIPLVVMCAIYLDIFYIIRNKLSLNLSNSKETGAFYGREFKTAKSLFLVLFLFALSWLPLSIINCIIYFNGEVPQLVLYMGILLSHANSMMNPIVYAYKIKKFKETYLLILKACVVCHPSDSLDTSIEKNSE
Procedure: The cells are grown adherently and maintained in Dulbecco's modified Eagle's medium with nutrient mixture F12 without nucleosides at 37 ° […] Cells are split two or three times weekly and then the culture medium is removed for membrane preparations. The cells are washed with phosphate-buffered saline and scraped off flasks in ice cold hypotonic buffer (5 mM Tris HCl, 2 mM EDTA, pH 7.4). The cell suspension is homogenized with Polytron and the homogenate is centrifuged for 30 min. at 48,000 g. The membrane pellet is re-suspended in 50 mM Tris HCl buffer at pH 7.4 for A1 adenosine receptors, in 50 mM Tris HCl, 10 mM MgCl2 at pH 7.4 for A2A adenosine receptors, in 50 mM Tris HCl, 10 mM MgCl2, 1 mM EDTA at pH 7.4 for A3 adenosine receptors and are utilized for binding and adenylate cyclase assays.

[3] = molecular target: T3, human recombinant A1 adenosine receptor (Homo sapiens, UniProt P30542); experiment: Human cloned A1 receptor binding, [3H]-DPCPX, CHO cells; conditions: read-out: hA1 (Ki)
T3 construct: expressed in transfected cells; host or cells: CHO
T3 sequence (P30542 1-326): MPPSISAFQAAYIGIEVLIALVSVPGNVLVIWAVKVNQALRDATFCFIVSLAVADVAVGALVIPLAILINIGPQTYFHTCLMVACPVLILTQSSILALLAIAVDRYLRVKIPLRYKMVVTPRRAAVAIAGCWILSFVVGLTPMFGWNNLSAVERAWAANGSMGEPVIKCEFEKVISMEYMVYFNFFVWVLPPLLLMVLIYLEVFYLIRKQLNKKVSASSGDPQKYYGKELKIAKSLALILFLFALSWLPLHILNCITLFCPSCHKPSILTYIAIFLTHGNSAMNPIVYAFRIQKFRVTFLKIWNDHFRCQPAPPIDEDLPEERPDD
Procedure: as §1
Binding of [^3H]-DPCPX to CHO cells transfected with the human recombinant A1 adenosine receptor is performed according to the method previously described by Klotz and coworkers (Klotz, K. N.; Cristalli, G.; Grifantini, M.; Vittori, S.; Lohse, M. J., “Photoaffinity labeling of A1 adenosine receptors,” J. Biol. Chem., 260, 14659-14664, 1985).
as §2

[4] = molecular target: T4, human recombinant A2B adenosine receptors (Homo sapiens, UniProt P29275); experiment: Human cloned A2B receptor binding, [3H]-DPCPX, HEK-293 cells; conditions: read-out: hA2B (Ki)
T4 construct: host or cells: HEK-293
T4 sequence (P29275 1-332): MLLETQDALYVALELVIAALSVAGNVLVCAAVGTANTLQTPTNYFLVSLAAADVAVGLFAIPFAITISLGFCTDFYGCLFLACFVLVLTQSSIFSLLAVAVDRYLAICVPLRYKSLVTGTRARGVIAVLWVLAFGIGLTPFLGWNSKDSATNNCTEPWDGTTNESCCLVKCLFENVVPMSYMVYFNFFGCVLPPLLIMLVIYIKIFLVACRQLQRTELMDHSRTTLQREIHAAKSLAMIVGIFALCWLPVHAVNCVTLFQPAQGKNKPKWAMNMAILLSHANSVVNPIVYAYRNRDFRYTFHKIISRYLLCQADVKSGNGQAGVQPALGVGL
Procedure: Binding of [^3H]-DPCPX to HEK-293 cells (Receptor Biology, Inc., Beltsville, Md.) transfected with the human recombinant A2B adenosine receptors is performed essentially to the method described by Varani and coworkers (Mol. Pharmacol.). In particular, assays are carried out for 60 min. at 25° C. in 0.1 mL of 50 mM Tris HCl Buffer, 10 mM MgCl2, 1 mM EDTA, 0.1 mM benzamidine pH 7.4, 2 IU/ml adenosine deaminase containing 40 nM [^3H]-DPCPX, diluted membranes (20 µg of protein/assay) and at least 6-8 different concentration of tested compounds. Non-specific binding is determined in the presence of 100 μM of NECA and is always 30% of the total binding.

[5] = molecular target: T5, adenosine A3 receptors in HL60 membranes (Homo sapiens, UniProt P0DMS8); experiment: Saturation binding of radioligand of Compound 108, HL60 membranes
T5 construct: endogenous in cells; host or cells: HL60 (promyelocytic human leukaemia)
T5 sequence (P0DMS8 1-318): T2 sequence (P0DMS8 1-318)

[6] = molecular target: T6, adenosine A3 receptors in Jurkat cell membranes (Homo sapiens, UniProt P0DMS8); experiment: Saturation binding of radioligand of Compound 108, Jurkat cell membranes
T6 construct: endogenous in cells; host or cells: Jurkat (human T-cell leukaemia)
T6 sequence (P0DMS8 1-318): T2 sequence (P0DMS8 1-318)

[7] = molecular target: T7, rA2A adenosine receptor (Rattus norvegicus, UniProt P30543); experiment: Rat A2A adenosine receptor binding assay, [3H]SCH58261 displacement, rat striatum membranes; conditions: rat striatum membranes, [3H]SCH58261; read-out: rA2A (Ki)
T7 construct: membranes of rat striatum (80-100 μmg of protein/assay); from tissue; host or cells: striatum of male Wistar rats
Procedure: (§3) Male Wistar rats (200-250 g) were decapitated and the whole brain and striatum dissected on ice. […] The homogenate was centrifuged at 48,000 for 10 min, and the pellet was resuspended in the same buffer containing 2 IU/mL adenosine deaminase. After 30 min incubation at 37° C., the membranes were centrifuged and pellets were stored at −80° C. Prior to freezing, an aliquot of homogenate was removed for protein assay with bovine albumin as reference standard. Binding assays were performed on rat brain and striatum membranes respectively, in the presence of 10 mM MgCl2 at 25° C.
(§4) Separation of bound from free radio ligand was performed by rapid filtration through Whatman GF/B filters which were washed three times with ice-cold buffer. Filter bound radioactivity was measured by scintillation spectrometry after addition of 5 mL of Aquassure. […] Ki values were calculated from the Cheng-Prusoff equation. All binding data were analyzed using the nonlinear regression curve-fitting computer program LIGAND.

[8] = molecular target: T2, human recombinant A3 adenosine receptor; experiment: Human cloned A3 adenosine receptor binding assay, [125I]AB-MECA, HEK-293 membranes; set-up: USA; host or cells: HEK-293; conditions: for Ki: HEK-293 membranes, [125I]AB-MECA, read-out: hA3 (Ki); for rA1/hA3 / rA2A/hA3: selectivity ratio of Ki values
[9] = molecular target: T8, rA1 adenosine receptor (Rattus norvegicus, UniProt P25099); experiment: Rat A1 adenosine receptor binding assay, [3H]CHA displacement, rat brain membranes
T8 construct: membranes of rat brain (150-200 μg- of protein/assay); from tissue; host or cells: whole brain of male Wistar rats
T8 sequence (P25099 1-326): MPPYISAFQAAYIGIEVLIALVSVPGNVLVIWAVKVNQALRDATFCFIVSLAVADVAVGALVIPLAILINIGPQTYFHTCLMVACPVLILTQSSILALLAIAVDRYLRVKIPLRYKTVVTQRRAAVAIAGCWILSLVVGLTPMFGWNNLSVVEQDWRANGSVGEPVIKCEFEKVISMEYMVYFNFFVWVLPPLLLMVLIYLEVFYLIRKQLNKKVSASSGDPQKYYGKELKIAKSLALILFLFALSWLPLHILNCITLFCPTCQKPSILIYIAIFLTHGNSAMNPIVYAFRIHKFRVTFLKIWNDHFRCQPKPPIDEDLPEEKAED
Procedure: as §3, §4

T1 sequence (P29274 whole entry): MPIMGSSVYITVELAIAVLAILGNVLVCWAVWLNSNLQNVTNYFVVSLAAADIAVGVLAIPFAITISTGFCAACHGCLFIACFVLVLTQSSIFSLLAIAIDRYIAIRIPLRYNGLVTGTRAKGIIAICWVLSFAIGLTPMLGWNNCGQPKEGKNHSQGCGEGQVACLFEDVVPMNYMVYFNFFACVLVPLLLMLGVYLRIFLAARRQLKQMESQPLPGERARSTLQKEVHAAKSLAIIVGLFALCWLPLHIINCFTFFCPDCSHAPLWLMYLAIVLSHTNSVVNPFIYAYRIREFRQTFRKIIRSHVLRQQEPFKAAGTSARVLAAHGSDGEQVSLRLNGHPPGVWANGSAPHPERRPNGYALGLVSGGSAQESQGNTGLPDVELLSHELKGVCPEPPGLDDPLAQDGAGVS
T7 sequence (P30543 whole entry): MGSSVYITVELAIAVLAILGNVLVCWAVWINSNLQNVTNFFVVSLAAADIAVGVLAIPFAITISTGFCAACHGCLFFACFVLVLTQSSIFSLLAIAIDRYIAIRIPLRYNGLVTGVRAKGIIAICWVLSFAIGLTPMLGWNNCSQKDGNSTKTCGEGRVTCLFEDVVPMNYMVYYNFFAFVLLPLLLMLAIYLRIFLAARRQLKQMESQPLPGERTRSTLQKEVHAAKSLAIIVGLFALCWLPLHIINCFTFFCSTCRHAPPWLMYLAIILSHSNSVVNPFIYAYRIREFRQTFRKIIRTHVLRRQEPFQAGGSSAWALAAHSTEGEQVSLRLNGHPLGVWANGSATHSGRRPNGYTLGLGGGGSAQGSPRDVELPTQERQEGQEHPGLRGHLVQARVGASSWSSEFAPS

| Structure (SMILES) | Ki [1] [nM] | Ki [2] [nM] | hA1/hA3 [2] | hA2A/hA3 [2] | Ki [3] [nM] | Ki [4] [nM] | also measured |
| --- | --- | --- | --- | --- | --- | --- | --- |
| CN1CCN(S(=O)(=O)c2ccc(NC(=O)Nc3nc4nn(C)cc4c4nc(-c5ccco5)nn34)cc2)CC1 [Compound 105, N-[2-(2-furyl)-8-methyl-8H-pyrazolo[4,3-e][1,2,4]triazolo[1,5-c]pyrimidin-5-yl]-N′{-4-[(4-methylpiperazin-1-yl)sulfonyl]-phenyl}urea] | > 1000 | 29 | 34.5 | 34.5 | > 1000 | > 1000 | hA2B/hA3 [2]: 34.5 |
| Cn1cc2c(nc(NC(=O)Nc3ccc(S(=O)(=O)N4CCOCC4)cc3)n3nc(-c4ccco4)nc23)n1 [Compound 104] | 1400 | 2.47 | 294 | 566 | 726 | > 10000 | hA2B/hA3 [2]: 4050 |
| CCCn1cc2c(nc(NC(=O)Nc3ccc(OC)cc3)n3nc(-c4ccco4)nc23)n1 [Compound 108, 5-[[(4-methoxyphenyl)amino]carbonyl]amino-8-propyl-2-(2-furyl)-pyrazolo[4, 3]-e-1 ,2,4-triazolo[1,5-c]pyrimidine] | 141 | – | – | – | 1200 | – | – |
| CCN(CC)c1ccc(NC(=O)Nc2nc3nn(C)cc3c3nc(-c4ccco4)nn23)cc1 [Compound 102, N-[8-methyl-2-(2-furyl)-8H-pyrazolo[4,3-e][1,2,4]triazolo[1,5-c]pyrimidin-5-yl]-N′-[4-(diethylamino)phenyl]urea hydrochloride] | 593 | – | – | – | 680 | 276 | – |
| CCN(CC)c1ccc(NC(=O)Nc2nc3nn(C)cc3c3nc(-c4ccco4)nn23)cc1 [Compound 101, N-[4-(diethylamino)phenyl]-N′-[2-(2-furyl)-8-methyl-8H -pyrazolo[4,3-e][1,2,4]triazolo[1,5-c]pyrimidin-5-yl]urea] | 523 | – | – | – | 580 | 350 | – |
| CN(C)c1ccc(NC(=O)Nc2nc3nn(C)cc3c3nc(-c4ccco4)nn23)cc1 [Compound 103, N-[8-methyl-2-(2-furyl)-8H-pyrazolo[4,3-e][1,2,4]triazolo[1,5-c]pyrimidin-5-yl]-N′-[4-(dimethylamino)phenyl]urea hydrochloride] | > 10000 | – | – | – | > 10000 | 609 | – |
| [3H]CC([3H])Cn1cc2c(nc(NC(=O)Nc3ccc(OC)cc3)n3nc(-c4ccco4)nc23)n1 (centres unmarked) [radioligand of Compound 108, 5-[[(4-methoxyphenyl)amino]carbonyl]amino-8-(1,2-ditritiopropyl)-2-(2-furyl)-pyrazolo[4,3-e]1,2,4-triazolo[1,5-c]pyrimidine] | – | – | – | – | – | – | Bmax value / A3 receptor density detected ([5]; FIG. 5): 626±42 fmol/mg protein; Bmax value / A3 receptor density detected ([5]; FIG. 5, listed as tritiated analogue of Compound 108): ~650 fmol/mg protein; Bmax value ([6]; Jurkat cell membranes, FIG. 4, n=3): 1.30±0.03 pmol/mg protein; A3 receptor density detected ([6]; Jurkat cells): approximately 1300 fmol/mg protein |
| CCn1cc2c(nc(N)n3nc(-c4ccco4)nc23)n1 [Compound 35, 5-Amino-8-ethyl-2-(2-furyl)-pyrazolo[4,3-e]1,2,4-triazolo[1,5-c]pyrimidine] | – | – | – | – | – | – | Ki [7]: 11.2 nM; Ki [8]: 3580 nM; rA1/hA3 [8]: 0.03; rA2A/hA3 [8]: 0.003; Ki [9]: 95.1 nM |
| COc1ccc(NC(=O)Nc2nc3nn(C)cc3c3nc(-c4ccco4)nn23)cc1 [Compound 43, 5-[[(4-Methoxyphenyl)amino]carbonyl]amino-8-methyl-2-(2-furyl)-pyrazolo[4,3-e]1,2,4-triazolo[1,5-c]pyrimidine] | – | – | – | – | – | – | Ki [7]: > 10000 nM; Ki [8]: 0.1 nM; rA1/hA3 [8]: >100,000; rA2A/hA3 [8]: >100,000; Ki [9]: > 10000 nM |
| CCn1cc2c(nc(NC(=O)Nc3ccc(OC)cc3)n3nc(-c4ccco4)nc23)n1 [Compound 109] | 1040 | 0.28 | 3660 | 3730 | 1030 | – | – |
